How the values were obtained:
[1] = system: male OF 1 mice; experiment: analgesia test: abdominal stretches induced by PBQ (phenylbenzoquinone); type: in vivo; details: 30 mg/kg p.o. at 120 minutes, PBQ 2 mg/kg i.p.
Description: The in vivo activity of the compounds of the invention was evaluated in an analgesia test.
Accordingly, intraperitoneal (i.p.) administration of PBQ (phenylbenzoquinone, 2 mg/kg in a 0.9% sodium chloride solution containing 5% of ethanol) to male OF 1 mice weighing 25 to 30 g causes abdominal stretches, on average 30 twists or contractions during the period from 5 to 15 minutes after injection. The test compounds are administered orally (p.o.) or intraperitoneally (i.p.) in suspension in Tween 80 at 0.5%, 60 minutes or 120 minutes before the administration of PBQ.
For example, compounds 28 and 30 of the table reduce by 33% and 80%, respectively, the number of stretches induced by PBQ, at a dose of 30 mg/kg p.o. at 120 minutes.

[2] = target: T1, FAAH (Fatty Acid Amide Hydrolase) (Mus musculus, UniProt O08914); experiment: radioenzymatic assay of hydrolysis of anandamide [1-3H ethanolamine] by FAAH; type: biochemical; details: mouse brain membrane homogenates; pre-incubation 20 minutes at 25° C.; anandamide final concentration 10 μM; read-out: IC50 (concentration inhibiting by 50% the control enzymatic activity of FAAH)
T1 construct: Membrane homogenates are prepared at the time of use by homogenizing the tissues; from tissue; host or cells: mouse brain (minus the cerebellum), membrane homogenate
T1 sequence (O08914 1-579): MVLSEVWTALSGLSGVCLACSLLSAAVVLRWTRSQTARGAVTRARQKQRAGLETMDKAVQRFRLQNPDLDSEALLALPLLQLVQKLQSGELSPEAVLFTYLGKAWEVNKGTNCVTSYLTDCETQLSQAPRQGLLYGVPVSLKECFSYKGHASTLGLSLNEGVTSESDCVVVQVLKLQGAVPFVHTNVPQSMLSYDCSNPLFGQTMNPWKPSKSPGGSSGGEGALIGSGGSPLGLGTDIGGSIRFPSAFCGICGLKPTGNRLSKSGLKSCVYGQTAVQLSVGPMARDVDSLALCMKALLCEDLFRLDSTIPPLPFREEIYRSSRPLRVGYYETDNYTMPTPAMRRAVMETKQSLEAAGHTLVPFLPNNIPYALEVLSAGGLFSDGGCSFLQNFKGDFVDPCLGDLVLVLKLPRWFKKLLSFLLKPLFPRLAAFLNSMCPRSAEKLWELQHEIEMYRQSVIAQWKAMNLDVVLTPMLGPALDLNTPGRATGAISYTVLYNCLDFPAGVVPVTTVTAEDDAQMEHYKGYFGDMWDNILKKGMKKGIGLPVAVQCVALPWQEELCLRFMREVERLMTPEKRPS
Description: The compounds of the invention were subjected to pharmacological tests allowing determination of their inhibitory effect on the enzyme FAAH (Fatty Acid Amide Hydrolase).
Accordingly, mouse brains (minus the cerebellum) are removed and stored at −80° C. Membrane homogenates are prepared at the time of use by homogenizing the tissues using a Precellys® apparatus in the reaction buffer (10 mM Tris-HCl pH=8, 150 mM NaCl and 1 mM ethylenediaminetetraacetic acid (EDTA)). The enzymatic reaction is conducted in 96-well Multiscreen filter plates, in a final volume of 70 μl. Reaction buffer supplemented with bovine serum albumin without fatty acids (BSA, 1 mg/ml) is used for the enzymatic reaction, the dilution of the compounds and of anandamide [1-^3H ethanolamine]. Added in succession to the wells are the reaction buffer containing the BSA (43 μl/well), the diluted test compounds at different concentrations (7 μl/well containing 1% DMSO) and the membrane preparation (10 μl/well or […] per assay). After the compounds have been pre-incubated with the enzyme at 25° C. for 20 minutes, the reaction is initiated by the addition of anandamide [1-^3H ethanolamine] […] The mixture is stirred for 10 minutes and then the aqueous phase containing the ethanolamine [1-^3H] is recovered by filtration under vacuum and counted by liquid scintillation.

SMILES	melting point [°C]	reduction of the number of stretches induced by PBQ [1] [%]	IC50 [2] [nM]
CCOc1ccc(-c2ccc(N3CCC(CCNC(=O)OCc4nccs4)CC3)nc2)cc1 [Compound 38, Thiazol-2-ylmethyl 2-[5′-(4-ethoxyphenyl)-3,4,5,6-tetrahydro-2H-[1,2′]bipyridinyl-4-yl]ethylcarbamate]	157 to 159		
O=C(NCCC1CCN(c2cccc(-c3ccc(F)cc3)n2)CC1)OC(c1nccs1)C(F)(F)F (racemic) [Compound 50, 2,2,2-Trifluoro-1-thiazol-2-ylethyl (+/−)-2-[6′-(4-fluorophenyl)-3,4,5,6-tetrahydro-2H-[1,2′]bipyridinyl-4-yl]ethylcarbamate]	121 to 123		
O=C(NCCC1CCN(c2ccc(-c3ccc(F)cc3)cn2)CC1)OCc1nccs1 [Compound 28, Thiazol-2-ylmethyl 2-[5′-(4-fluorophenyl)-3,4,5,6-tetrahydro-2H-[1,2′]bipyridinyl-4-yl]-ethylcarbamate]	131 to 133	33	3
O=C(NCCC1CCN(c2ccc(-c3ccc(F)cc3)cn2)CC1)OCc1cncs1 [Compound 33, Thiazol-5-ylmethyl 2-[5′-(4-fluorophenyl)-3,4,5,6-tetrahydro-2H-[1,2′]bipyridinyl-4-yl]ethylcarbamate]	100 to 102		
O=C(NCCC1CCN(c2ccc3cc(F)ccc3n2)CC1)OCc1cncs1 [Compound 117, Thiazol-5-ylmethyl 2-[1-(6-fluoroquinolin-2-yl)piperidin-4-yl]ethylcarbamate]	100 to 102		
O=C(NCCC1CCN(c2ccc(-c3ccc(F)cc3)cn2)CC1)OCc1cscn1 [Compound 30, Thiazol-4-ylmethyl 2-[5′-(4-fluorophenyl)-3,4,5,6-tetrahydro-2H-[1,2′]bipyridinyl-4-yl]ethylcarbamate]	130 to 132	80	7
O=C(NCCC1CCN(c2ccc3cc(Cl)ccc3n2)CC1)OC(c1nccs1)C(F)(F)F (racemic) [Compound 106, 2,2,2-Trifluoro-1-thiazol-2-ylethyl (+/−)-2-[1-(6-chloroquinolin-2-yl)piperidin-4-yl]ethylcarbamate]	114 to 116		

From patent US8912218B2, “Alkylthiazol carbamate derivatives, preparation thereof and therapeutic use thereof” (Sanofi, priority 2008, dated 2014)
